Tests used:
Test in all cases: relative viability (nuclei count vs DMSO), 5 days (fraction); higher = more cells survive
BI-D1870 + Alpelisib = compound: CC(C)CCN1c2nc(Nc3cc(F)c(O)c(F)c3)ncc2N(C)C(=O)C1C [BI-D1870] + Cc1nc(NC(=O)N2CCC[C@H]2C(N)=O)sc1-c1ccnc(C(C)(C)C(F)(F)F)c1 [Alpelisib] (partner 2 µM)
How it was run: (§1)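 Relative viability is defined as nuclei in treated wells over nuclei in vehicle wells. Duplicate plates were run and medians reported. Lung cancer cell lines in 1536-well plates were dosed by pin tool one day after seeding, with one drug or with a fixed anchor-drug dose plus five library-drug doses (not always all listed) in √10 steps, and nuclei were counted after 5 days.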

Zebularine + Palbociclib = compound: O=c1ncccn1[C@@H]1O[C@H](CO)[C@@H](O)[C@H]1O [Zebularine] + CC(=O)c1c(C)c2cnc(Nc3ccc(N4CCNCC4)cn3)nc2n(C2CCCC2)c1=O [Palbociclib] (partner 0.5 µM)
How it was run: as §1

Zebularine + Bortezomib = compound: O=c1ncccn1[C@@H]1O[C@H](CO)[C@@H](O)[C@H]1O [Zebularine] + CC(C)C[C@H](NC(=O)[C@H](Cc1ccccc1)NC(=O)c1cnccn1)B(O)O [Bortezomib] (partner 0.002 µM)
How it was run: as §1

Zebularine + AZD7762 = compound: O=c1ncccn1[C@@H]1O[C@H](CO)[C@@H](O)[C@H]1O [Zebularine] + NC(=O)Nc1cc(-c2cccc(F)c2)sc1C(=O)N[C@H]1CCCNC1 [AZD7762] (partner 0.2 µM)
How it was run: as §1

| Cell Line | relative viability (BI-D1870 + Alpelisib; first compound 0.04 µM) | relative viability (BI-D1870 + Alpelisib; first compound 0.1265 µM) | relative viability (BI-D1870 + Alpelisib; first compound 0.4 µM) | relative viability (BI-D1870 + Alpelisib; first compound 1.265 µM) | relative viability (BI-D1870 + Alpelisib; first compound 4 µM) | relative viability (Zebularine + Palbociclib; first compound 1 µM) | relative viability (Zebularine + Palbociclib; first compound 3.162 µM) | relative viability (Zebularine + Palbociclib; first compound 10 µM) | relative viability (Zebularine + Palbociclib; first compound 31.62 µM) | relative viability (Zebularine + Palbociclib; first compound 100 µM) | relative viability (Zebularine + Bortezomib; first compound 1 µM) | relative viability (Zebularine + Bortezomib; first compound 3.162 µM) | relative viability (Zebularine + Bortezomib; first compound 10 µM) | relative viability (Zebularine + Bortezomib; first compound 31.62 µM) | relative viability (Zebularine + Bortezomib; first compound 100 µM) | relative viability (Zebularine + AZD7762; first compound 1 µM) | relative viability (Zebularine + AZD7762; first compound 3.162 µM) | relative viability (Zebularine + AZD7762; first compound 10 µM) | relative viability (Zebularine + AZD7762; first compound 31.62 µM) | relative viability (Zebularine + AZD7762; first compound 100 µM) |
| --- | --- | --- | --- | --- | --- | --- | --- | --- | --- | --- | --- | --- | --- | --- | --- | --- | --- | --- | --- | --- |
| EMC-BAC-2 | 0.815 | 0.649 | 0.723 | 0.765 | 0.69 | 0.545 | 0.507 | 0.431 | 0.6 | 0.539 | 1.1 | 1.09 | 0.732 | 1.09 | 1.11 | 1.19 | 1.2 | 0.792 | 1.2 | 1.15 |
| NCI-H2170 | 0.867 | 0.705 | 0.818 | 0.751 | 0.772 | 0.415 | 0.351 | 0.366 | 0.404 | 0.283 |  |  |  |  |  | 0.914 | 0.982 | 0.771 | 0.938 | 0.393 |
| NCI-H1299 | 1.05 | 1.04 | 1.07 | 1.15 | 0.993 |  |  |  |  |  | 1.01 | 1.06 | 0.969 | 1.08 | 0.747 |  |  |  |  |  |
| EBC-1 | 0.925 | 0.625 | 0.786 | 0.475 | 0.297 |  |  |  |  |  | 0.528 | 0.547 | 0.508 | 0.572 | 0.623 |  |  |  |  |  |
| NCI-H1648 |  |  |  |  |  | 0.316 | 0.226 | 0.301 | 0.25 | 0.24 |  |  |  |  |  | 0.587 | 0.71 | 0.543 | 0.615 | 0.6 |
| ChaGo-K-1 |  |  |  |  |  | 0.919 | 0.737 | 0.345 | 0.198 | 0.217 | 1.27 | 0.982 | 0.558 | 0.678 | 0.284 | 0.916 | 0.862 | 0.427 | 0.337 | 0.249 |
| COR-L23 | 0.978 | 0.731 | 0.875 | 0.722 | 0.449 | 0.314 | 0.286 | 0.176 | 0.224 | 0.146 | 0.928 | 1.13 | 0.363 | 0.318 | 0.251 |  |  |  |  |  |
| COR-L 105 | 1.2 | 0.803 | 1.29 | 1.09 | 1.05 | 0.515 | 0.373 | 0.416 | 0.406 | 0.43 | 0.978 | 0.771 | 0.694 | 1.21 | 0.843 |  |  |  |  |  |
| LK-2 | 1.22 | 1.11 | 1.11 | 1.32 | 0.608 | 0.874 | 0.797 | 0.424 | 0.28 | 0.204 |  |  |  |  |  | 0.492 | 0.382 | 0.49 | 0.23 | 0.16 |
| NCI-H596 | 0.456 | 0.487 | 0.43 | 0.511 | 0.512 |  |  |  |  |  | 1.06 | 1.1 | 0.725 | 1.23 | 0.986 | 1.23 | 1.09 | 0.843 | 1.01 | 1.07 |
| NCI-H2023 | 0.696 | 0.552 | 0.592 | 0.634 | 0.552 | 0.361 | 0.375 | 0.235 | 0.322 | 0.245 | 1.08 | 0.932 | 0.749 | 0.646 | 0.273 |  |  |  |  |  |

From the supplement of paper PMC10307832
